These results are taken from paper PMC11768932, “Pharmacokinetic Evaluation of Neutral Sphinghomyelinase2 (nSMase2) Inhibitor Prodrugs in Mice and Dogs” (Pharmaceutics, 2024).

SMILES strings stand for the structures.

Data set [1] can be described thus: In vitro stability in dog plasma. In kind it is in vitro ADME. To be noted: 37 °C. The procedure: (§1) The in vitro metabolic stability analysis of DPTIP prodrugs was performed in the plasma of mice, dogs, and humans, as previously described. Briefly, for plasma stability, 1 mL of plasma was spiked with 10 μM of the respective prodrug followed by incubation in an orbital shaker at 37 °C for 1 h (in triplicate). The samples from each incubation at predetermined time points (0 and 60 min) was quenched with 3× volume of acetonitrile containing the internal standard (IS; losartan: 0.5 μM). The samples were vortex-mixed for 30 s and centrifuged at 10,000× g for 10 min at 4 °C. Compound disappearance over time was monitored via a Dionex ultra-high-performance LC system coupled with a Q Exactive Focus orbitrap mass spectrometer (Thermo Fisher Scientific Inc., Waltham, MA, USA). Quantification of the prodrugs was performed in full scan mode (from m/z 75 to 1125) by comparing t = 0 min samples with t = 60 min samples.

Data set [2] in a line: In vitro stability in human plasma. Conditions: 37 °C. In kind it is in vitro ADME. The procedure: as §1
Details of data set [3]: method as in PMID 35930706. To be noted: CES1−/− mouse plasma, 10 μM, 37 °C, previously published; cited from earlier work.

For orientation: fraction remaining means the share of the starting amount still present when the sample was taken. Consider `CCCCCN(C)C(=O)Oc1c(OC)cc(-c2nc(-c3ccccc3)c(-c3cccs3)[nH]2)cc1OC` [Prodrug 5], for which, in data set [1] (10 μM), the “In Vitro Stability in Plasma (% Remaining at 60 min) Mean ± SEM (n = 3), Dogs” value was found to be 49.5 ± 1.0%. Also, the share remaining at 1 h, 10 μM was in the range of 40 to 77% in data set [1] (dog, 60 min, read-out: In Vitro Stability in Plasma (% Remaining at 60 min) Mean ± SEM (n = 3), Dogs) and 40 to 77% in data set [2] (human, 60 min, read-out: In Vitro Stability in Plasma (% Remaining at 60 min) Mean ± SEM (n = 3), Humans). In addition, the “In Vitro Stability in Plasma (% Remaining at 60 min) Mean ± SEM (n = 3), Humans” value in data set [2] (10 μM) came to 42.3 ± 2.1%. In data set [3], the “In Vitro Stability in Plasma (% Remaining at 60 min) Mean ± SEM (n = 3), Mice” value was 59.9 ± 5.8 %.
